Test results reported in patent publication US11466044B2 (WAYNE STATE UNIVERSITY, priority 2017, dated 2022).
≈ marks a conversion by molar mass, not a printed value. Where two headings read alike, the source gives them in different places.

How the values were obtained:
E coli wild type = assay: MIC by broth microdilution, wild type E coli; type: cell-based; details: Escherichia coli; for MIC50: Table 1 (Example 1)
[1] = tested on: wild type bacterial ribosomes; assay: in-vitro translation assay, bacterial ribosomes; type: biochemical; details: bacterial ribosome; Table 3 (Example 1); read-out: IC50 Bac
From the text: (§1) The antiribosomal activity of these compounds was investigated with cell-free translation assays using both wild type bacterial ribosomes and hybrid ribosomes carrying eukaryotic decoding A sites enabling the prediction of selectivity.

[2] = tested on: mitochondrial ribosome (human chimeric); type: biochemical; details: mitochondrial; Table 3 (Example 1); read-out: IC50 Mit
From the text: as §1

[3] = tested on: cytosolic ribosome (human chimeric); type: biochemical; details: cytosolic; Table 3 (Example 1); read-out: IC50 Cyt
From the text: as §1

P aeruginosa = assay: MIC by broth microdilution, P aeruginosa isolates; type: cell-based, Pseudomonas aeruginosa; details: for MIC50: Pseudomonas aeruginosa, Table 1 (Example 1)
[4] = tested on: Klebsiella pneumonia AG215; assay: MIC by broth microdilution, Klebsiella pneumonia; type: cell-based; details: Klebsiella pneumoniae; strain AG215 Klebsiella pneumonia; read-out: MIC AG215 K. pneumon
[5] = tested on: Acinetobacter baumannii pittii AG225; assay: MIC by broth microdilution, Acinetobacter baumannii; type: cell-based; details: strain AG225 Acinetobacter baumannii pittii
[6] = tested on: E coli carrying specific resistance determinants; assay: MIC by broth microdilution, E coli carrying specific resistance determinants; type: cell-based; details: Escherichia coli
MRSA = assay: MIC by broth microdilution, MRSA isolates; type: cell-based; details: Staphylococcus aureus, MRSA, Table 1 (Example 1)
N. gonorrhoeae = assay: Disk diffusion, N. gonorrhoeae; type: cell-based; details: Neisseria gonorrhoeae
[7] = tested on: Enterobacter cloacae AG290; assay: MIC by broth microdilution, Enterobacter cloacae; type: cell-based; details: strain AG290 Enterobacter cloacae; read-out: MIC AG290 E. cloacae
M. smegmatis SZ380 = assay: MIC by broth microdilution, M. smegmatis; details: Mycolicibacterium smegmatis, SZ380, read-out: MIC SZ380 M. smegmatis, strain SZ380 Mycobacterium smegmatis

`NCC1OC(OC2C(CNC=O)OC(OC3C(O)C(N)CC(N)C3OC3OC(CO)C(O)CC3N)C2O)C(N)C(O)C1O` (stereo not shown) [Compound 153, 3′,5″-Dideoxy-5″-formamido-paromomycin] gave an MIC (E coli wild type; AG006 wt, Table 2 (Example 1), read-out: MIC E coli AG006 wt) of 2 mg/L (≈ 3.19 µM), an MIC (E coli wild type; AG102 wt, Table 2 (Example 1), read-out: MIC E coli AG102 wt) of 2 mg/L (≈ 3.19 µM) and an MIC (E coli wild type; AG160 wt, Table 2 (Example 1), read-out: MIC E coli AG160 wt) of 2 to 4 mg/L (≈ 3.19 to 6.38 µM). It also gave an MIC (E coli wild type; ATCC25922, strain AG212 E. coli (ATCC25922), read-out: MIC AG212 E. coli) of 4 mg/L (≈ 6.38 µM), an MIC (E coli wild type; WT, Table 3 (Example 1), read-out: MIC WT) of 2 mg/L (≈ 3.19 µM) and an MIC (E coli wild type; clinical isolate AG160 WT, Table 2 (Example 4), read-out: MIC AG160 E. coli WT) of 2 to 4 mg/L (≈ 3.19 to 6.38 µM). The MIC (E coli wild type; engineered strain pH430 WT, Table 2 (Example 4), read-out: MIC pH430 E. coli WT) was 2 mg/L (≈ 3.19 µM), the MIC50 (E coli wild type; strain AG01, read-out: MIC50 E coli AG01) was 8 to 16 mg/L (≈ 12.8 to 25.5 µM) and the MIC50 (E coli wild type; strain AG03, read-out: MIC50 E coli AG03) was 8 mg/L (≈ 12.8 µM). For the same molecule, the MIC50 (E coli wild type; strain AG55, read-out: MIC50 E coli AG55) was 8 to 16 mg/L (≈ 12.8 to 25.5 µM), the IC50 [1] was 0.12 µM and the IC50 [2] was 144 µM. It also gave an IC50 [3] of 90 µM, an MIC50 (P aeruginosa; strain AG31, read-out: MIC50 P aeruginosa AG31) of 32 to 64 mg/L (≈ 51.1 to 102 µM) and an MIC50 (P aeruginosa; strain AG32, read-out: MIC50 P aeruginosa AG32) of 32 mg/L (≈ 51.1 µM). For the same molecule, the MIC50 (P aeruginosa; strain AG33, read-out: MIC50 P aeruginosa AG33) was greater than 32 mg/L, the MIC (P aeruginosa; strain AG220 Pseudomonas aeruginosa ATCC27853, read-out: MIC AG220 P. aerugin) was 8 mg/L (≈ 12.8 µM) and the MIC [4] was 1 to 2 mg/L (≈ 1.6 to 3.19 µM). It also gave an MIC [5] of 4 mg/L (≈ 6.38 µM), an MIC ([6]; read-out: MIC AG037 E. coli APH(3′)-III) of 2 mg/L (≈ 3.19 µM) and an MIC ([6]; read-out: MIC AG163 E. coli APH(3′)-I) of 4 to 8 mg/L (≈ 6.38 to 12.8 µM). The MIC ([6]; read-out: MIC AG166 E. coli APH(3′)-II) was 8 to 16 mg/L (≈ 12.8 to 25.5 µM), the MIC ([6]; read-out: MIC APH(3)-VI) was 2 to 4 mg/L (≈ 3.19 to 6.38 µM) and the MIC ([6]; read-out: MIC APH(3′)-I) was 2 mg/L (≈ 3.19 µM). The MIC ([6]; read-out: MIC APH(3′)-II) was 2 mg/L (≈ 3.19 µM), the MIC ([6]; read-out: MIC APH(3′)-III) was 2 mg/L (≈ 3.19 µM) and the MIC ([6]; read-out: MIC E coli AG007 ANT(3″) AAC(3)-I) was 4 mg/L (≈ 6.38 µM). For the same molecule, the MIC ([6]; read-out: MIC E coli AG103 ArmA) was 32 mg/L (≈ 51.1 µM), the MIC ([6]; read-out: MIC E coli AG163/164 APH(3′)-Ia) was 4 to 8 mg/L (≈ 6.38 to 12.8 µM) and the MIC ([6]; read-out: MIC E coli AG166 APH(3′)-IIa) was 8 to 16 mg/L (≈ 12.8 to 25.5 µM). For the same molecule, the MIC ([6]; read-out: MIC pH421 E. coli APH(3′)-I) was 2 mg/L (≈ 3.19 µM), the MIC ([6]; read-out: MIC pH422 E. coli APH(3′)-II) was 4 mg/L (≈ 6.38 µM) and the MIC ([6]; read-out: MIC pH423 E. coli APH(3′)-VI) was 2 to 4 mg/L (≈ 3.19 to 6.38 µM). The MIC50 (MRSA; strain AG38, read-out: MIC50 MRSA AG38) was 4 mg/L (≈ 6.38 µM), the MIC50 (MRSA; strain AG39, read-out: MIC50 MRSA AG39) was greater than 128 mg/L and the MIC50 (MRSA; strain AG42, read-out: MIC50 MRSA AG42) was greater than 128 mg/L. It also gave an MIC50 (MRSA; strain AG44, read-out: MIC50 MRSA AG44) of 4 mg/L (≈ 6.38 µM), a zone of inhibition at 25 nmol/disc (N. gonorrhoeae) of 13 mm and an MIC [7] of 2 mg/L (≈ 3.19 µM). For the same molecule, the MIC (M. smegmatis SZ380) was 1 mg/L (≈ 1.6 µM).
